Reference: patent US10519152B2, “Compounds and their use in treating cancer” (AstraZeneca AB, priority 2017, dated 2019)

What follows are compounds tested against T1, recombinant human Estrogen Receptor alpha ligand binding domain, residues 307-554 (ER alpha-LBD (GST)) (Homo sapiens, UniProt P03372) (assay: ERα binding assay (LanthaScreen TR-FRET competition)). Conditions: TR-FRET competition with Fluormone ES2 tracer, 4 hours at room temperature; single experiment or average of two or more.
T1 construct: made in house
T1 sequence (P03372 307-554): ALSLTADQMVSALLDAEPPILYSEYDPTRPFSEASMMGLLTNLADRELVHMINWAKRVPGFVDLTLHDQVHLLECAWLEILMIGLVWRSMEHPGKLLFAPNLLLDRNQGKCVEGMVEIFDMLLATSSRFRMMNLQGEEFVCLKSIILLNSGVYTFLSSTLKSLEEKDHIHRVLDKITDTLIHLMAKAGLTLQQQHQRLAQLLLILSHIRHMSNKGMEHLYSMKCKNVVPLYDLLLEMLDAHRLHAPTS

Compound | IC50 [nM]
Cc1ncsc1-c1ccc(CNC(=O)[C@@H]2C[C@@H](O)CN2C(=O)[C@@H](NC(=O)c2cnn(CCOCCNC(=O)/C=C/c3cc(F)c([C@@H]4c5[nH]c6ccccc6c5C[C@@H](C)N4CC(C)(C)F)c(F)c3)c2)C(C)(C)C)cc1 [Example 64, 1-(2-(2-((E)-3-(3,5-difluoro-4-((1R,3R)-2-(2-fluoro-2-methylpropyl)-3-methyl-2,3,4,9-tetrahydro-1H-pyrido[3,4-b]indol-1-yl)phenyl)acrylamido)ethoxy)ethyl)-N—((S)-1-((2S,4R)-4-hydroxy-2-((4-(4-methylthiazol-5-yl)benzyl)carbamoyl)pyrrolidin-5-yl)-3,3-dimethyl-1-oxobutan-2-yl)-1H-pyrazole-4-carboxamide, Trifluoroacetic Acid] | 0.4
Cc1ncsc1-c1ccc(CNC(=O)[C@@H]2C[C@@H](O)CN2C(=O)[C@@H](NC(=O)Cc2ccc(OCCOCCNC(=O)/C=C/c3cc(F)c([C@@H]4c5[nH]c6ccccc6c5C[C@@H](C)N4CC(C)(C)F)c(F)c3)cc2)C(C)(C)C)cc1 [Example 66, (2S,4R)-1-((S)-2-(2-(4-(2-(2-((E)-3-(3,5-difluoro-4-((1R,3R)-2-(2-fluoro-2-methylpropyl)-3-methyl-2,3,4,9-tetrahydro-1H-pyrido[3,4-b]indol-1-yl)phenyl)acrylamido)ethoxy)ethoxy)phenyl)acetamido)-3,3-dimethylbutanoyl)-4-hydroxy-N-(4-(4-methylthiazol-5-yl)benzyl)pyrrolidine-2-carboxamide, Trifluoroacetic Acid] | 1.2
Cc1ncsc1-c1ccc(CNC(=O)[C@@H]2C[C@@H](O)CN2C(=O)[C@@H](NC(=O)c2ccc(N3CCN(CCNC(=O)/C=C/c4cc(F)c([C@@H]5c6[nH]c7ccccc7c6C[C@@H](C)N5CC(C)(C)F)c(F)c4)CC3)cc2)C(C)(C)C)cc1 [Example 67, (2S,4R)-1-((S)-2-(4-(4-(2-((E)-3-(3,5-difluoro-4-((1R,3R)-2-(2-fluoro-2-methylpropyl)-3-methyl-2,3,4,9-tetrahydro-1H-pyrido[3,4-b]indol-1-yl)phenyl)acrylamido)ethyl)piperazin-1-yl)benzamido)-3,3-dimethylbutanoyl)-4-hydroxy-N-(4-(4-methylthiazol-5-yl)benzyl)pyrrolidine-2-carboxamide, Trifluoroacetic Acid] | 1.1
Cc1ncsc1-c1ccc(CNC(=O)[C@@H]2C[C@@H](O)CN2C(=O)[C@@H](NC(=O)COCCOCCOCCOCC(=O)Nc2cc(F)c([C@@H]3c4[nH]c5ccccc5c4C[C@@H](C)N3CC(C)(C)F)c(F)c2)C(C)(C)C)cc1 [Example 68, N1-(3,5-difluoro-4-((1R,3R)-2-(2-fluoro-2-methylpropyl)-3-methyl-2,3,4,9-tetrahydro-1H-pyrido[3,4-b]indol-1-yl)phenyl)-N14-((S)-1-((2S,4R)-4-hydroxy-2-((4-(4-methylthiazol-5-yl)benzyl)carbamoyl)pyrrolidin-1-yl)-3,3-dimethyl-1-oxobutan-2-yl)-3,6,9,12-tetraoxatetradecanediamide] | 1
Cc1ncsc1-c1ccc(CNC(=O)[C@@H]2C[C@@H](O)CN2C(=O)[C@@H](NC(=O)COCCOCCOCCOc2cc(F)c([C@@H]3c4[nH]c5ccccc5c4C[C@@H](C)N3CC(F)(F)CO)c(F)c2)C(C)(C)C)cc1 [Example 71, (2S,4R)-1-((S)-2-(tert-Butyl)-14-(4-((1R,3R)-2-(2,2-difluoro-3-hydroxypropyl)-3-methyl-2,3,4,9-tetrahydro-1H-pyrido[3,4-b]indol-1-yl)-3,5-difluorophenoxy)-4-oxo-6,9,12-trioxa-3-azatetradecanoyl)-4-hydroxy-N-(4-(4-methylthiazol-5-yl)benzyl)pyrrolidine-2-carboxamide] | 1.3
Cc1ncsc1-c1ccc(CNC(=O)[C@@H]2C[C@@H](O)CN2C(=O)[C@@H](NC(=O)COCc2cccc(CCCOc3cc(F)c([C@@H]4c5[nH]c6ccccc6c5C[C@@H](C)N4CC(C)(C)F)c(F)c3)c2)C(C)(C)C)cc1 [Example 74, (2S,4R)-1-((S)-2-(2-((3-(3-(3,5-Difluoro-4-((1R,3R)-2-(2-fluoro-2-methylpropyl)-3-methyl-2,3,4,9-tetrahydro-1H-pyrido[3,4-b]indol-1-yl)phenoxy)propyl)benzyl)oxy)acetamido)-3,3-dimethylbutanoyl)-4-hydroxy-N-(4-(4-methylthiazol-5-yl)benzyl)pyrrolidine-2-carboxamide] | 0.8
Cc1ncsc1-c1ccc(CNC(=O)[C@@H]2C[C@@H](O)CN2C(=O)[C@@H](NC(=O)COCCOCCOCCOc2cc(F)c([C@@H]3c4[nH]c5ccccc5c4C[C@@H](C)N3CC3(F)CC3)c(F)c2)C(C)(C)C)cc1 [Example 77, (2S,4R)-1-((S)-2-(tert-Butyl)-14-(3,5-difluoro-4-((1R,3R)-2-((1-fluorocyclopropyl)methyl)-3-methyl-2,3,4,9-tetrahydro-1H-pyrido[3,4-b]indol-1-yl)phenoxy)-4-oxo-6,9,12-trioxa-3-azatetradecanoyl)-4-hydroxy-N-(4-(4-methylthiazol-5-yl)benzyl)pyrrolidine-2-carboxamide] | 2.6
Cc1ncsc1-c1ccc(CNC(=O)[C@@H]2C[C@@H](O)CN2C(=O)[C@@H](NC(=O)COCCCCCCCOc2cc(F)c([C@@H]3c4[nH]c5ccccc5c4C[C@@H](C)N3CC(F)(F)CO)c(F)c2)C(C)(C)C)cc1 [Example 78, (2S,4R)-1-((S)-2-(2-((7-(4-((1R,3R)-2-(2,2-Difluoro-3-hydroxypropyl)-3-methyl-2,3,4,9-tetrahydro-1H-pyrido[3,4-b]indol-1-yl)-3,5-difluorophenoxy)heptyl)oxy)acetamido)-3,3-dimethylbutanoyl)-4-hydroxy-N-(4-(4-methylthiazol-5-yl)benzyl)pyrrolidine-2-carboxamide] | 0.5
Cc1ncsc1-c1ccc(CNC(=O)[C@@H]2C[C@@H](O)CN2C(=O)[C@@H](NC(=O)COCCCCCOc2cc(F)c([C@@H]3c4[nH]c5ccccc5c4C[C@@H](C)N3CC3(F)CC3)c(F)c2)C(C)(C)C)cc1 [Example 79, (2S,4R)-1-((S)-2-(2-((5-(3,5-difluoro-4-((1R,3R)-2-((1-fluorocyclopropyl)methyl)-3-methyl-2,3,4,9-tetrahydro-1H-pyrido[3,4-b]indol-1-yl)phenoxy)pentyl)oxy)acetamido)-3,3-dimethylbutanoyl)-4-hydroxy-N-(4-(4-methylthiazol-5-yl)benzyl)pyrrolidine-2-carboxamide] | 0.9
Cc1ncsc1-c1ccc(CNC(=O)[C@@H]2C[C@@H](O)CN2C(=O)[C@@H](NC(=O)COCCO[C@H](C)[C@@H](C)OCCOc2cc(F)c([C@@H]3c4[nH]c5ccccc5c4C[C@@H](C)N3CC(C)(C)F)c(F)c2)C(C)(C)C)cc1 [Example 80, (2S,4R)-1-((2S,10R,11R)-2-(tert-butyl)-14-(3,5-difluoro-4-((1R,3R)-2-(2-fluoro-2-methylpropyl)-3-methyl-2,3,4,9-tetrahydro-1H-pyrido[3,4-b]indol-1-yl)phenoxy)-10,11-dimethyl-4-oxo-6,9,12-trioxa-3-azatetradecanoyl)-4-hydroxy-N-(4-(4-methylthiazol-5-yl)benzyl)pyrrolidine-2-carboxamide] | 0.7
Cc1ncsc1-c1ccc(CNC(=O)[C@@H]2C[C@@H](O)CN2C(=O)[C@@H](NC(=O)COCCO[C@@H](C)[C@H](C)OCCOc2cc(F)c([C@@H]3c4[nH]c5ccccc5c4C[C@@H](C)N3CC(C)(C)F)c(F)c2)C(C)(C)C)cc1 [Example 82, (2S,4R)-1-((2S,10S,11S)-2-(tert-butyl)-14-(3,5-difluoro-4-((1R,3R)-2-(2-fluoro-2-methylpropyl)-3-methyl-2,3,4,9-tetrahydro-1H-pyrido[3,4-b]indol-1-yl)phenoxy)-10,11-dimethyl-4-oxo-6,9,12-trioxa-3-azatetradecanoyl)-4-hydroxy-N-(4-(4-methylthiazol-5-yl)benzyl)pyrrolidine-2-carboxamide] | 0.9
Cc1ncsc1-c1ccc(CNC(=O)[C@@H]2C[C@@H](O)CN2C(=O)[C@@H](NC(=O)COCCOCCOCCCCNC(=O)c2cc(F)c([C@@H]3c4[nH]c5ccccc5c4C[C@@H](C)N3CC(C)(C)F)c(F)c2)C(C)(C)C)cc1 [Example 83, (2S,4R)-1-((S)-17-(tert-Butyl)-1-(3,5-difluoro-4-((1R,3R)-2-(2-fluoro-2-methylpropyl)-3-methyl-2,3,4,9-tetrahydro-1H-pyrido[3,4-b]indol-1-yl)phenyl)-1,15-dioxo-7,10,13-trioxa-2,16-diazaoctadecan-18-oyl)-4-hydroxy-N-(4-(4-methylthiazol-5-yl)benzyl)pyrrolidine-2-carboxamide] | 1.1
Cc1ncsc1-c1ccc(CNC(=O)[C@@H]2C[C@@H](O)CN2C(=O)[C@@H](NC(=O)COCCOCCOCCCNC(=O)c2cc(F)c([C@@H]3c4[nH]c5ccccc5c4C[C@@H](C)N3CC(C)(C)F)c(F)c2)C(C)(C)C)cc1 [Example 84, (2S,4R)-1-((S)-16-(tert-Butyl)-1-(3,5-difluoro-4-((1R,3R)-2-(2-fluoro-2-methylpropyl)-3-methyl-2,3,4,9-tetrahydro-1H-pyrido[3,4-b]indol-1-yl)phenyl)-1,14-dioxo-6,9,12-trioxa-2,15-diazaheptadecan-17-oyl)-4-hydroxy-N-(4-(4-methylthiazol-5-yl)benzyl)pyrrolidine-2-carboxamide] | 1.3
Cc1ncsc1-c1ccc(CNC(=O)[C@@H]2C[C@@H](O)CN2C(=O)[C@@H](NC(=O)COCc2ccc(COc3cc(F)c([C@@H]4c5[nH]c6ccccc6c5C[C@@H](C)N4CC(C)(C)F)c(F)c3)nc2)C(C)(C)C)cc1 [Example 85, (2S,4R)-1-((S)-2-(2-((6-((3,5-difluoro-4-((1R,3R)-2-(2-fluoro-2-methylpropyl)-3-methyl-2,3,4,9-tetrahydro-1H-pyrido[3,4-b]indol-1-yl)phenoxy)methyl)pyridin-3-yl)methoxy)acetamido)-3,3-dimethylbutanoyl)-4-hydroxy-N-(4-(4-methylthiazol-5-yl)benzyl)pyrrolidine-2-carboxamide] | 0.9
